The record followed here is US12350708B2, “Molecular coatings and methods of making and using the same” (Glisten LLC, priority 2019, dated 2025).

This data set in a line: water contact angle testing of diamond surfaces. Format: physicochemical. The settings on record: diamond surface, Example 11, FIGS. 20A-20D; uncoated diamond approximately 65°.
Text: In some embodiments, water contact angle goniometry can be used to probe the surface properties and performance of the functionalized gemstones (e.g., of the diamond surface, of the surface after the anchor molecule is bound, and/or of the surface after the host molecule is bound forming an inclusion complex). In some embodiments, comparisons of water contact angle can be employed to analytically determine the specific coverage of adsorbed species pertaining to the anchor and to the host/guest complex. In some embodiments, water contact angle can be used to determine the durability of the gemstone coating by performing measurements at various stages of time after normal use after the host/guest inclusion complexes are formed. […]
(§1) Self-assembly of the β-cyclodextrin is analyzed with water contact angle. Angles will decrease according to the quantity of cyclodextrin residing on the substrate. The change in the refractive index of the surface after molecular coating is determined using optical ellipsometry. […]
as §1

In turn, `OC[C@H]1O[C@@H]2O[C@H]3[C@H](O)[C@@H](O)[C@@H](O[C@H]4[C@H](O)[C@@H](O)[C@@H](O[C@H]5[C@H](O)[C@@H](O)[C@@H](O[C@H]6[C@H](O)[C@@H](O)[C@@H](O[C@H]7[C@H](O)[C@@H](O)[C@@H](O[C@H]8[C@H](O)[C@@H](O)[C@@H](O[C@H]1[C@H](O)[C@H]2O)O[C@@H]8CO)O[C@@H]7CO)O[C@@H]6CO)O[C@@H]5CO)O[C@@H]4CO)O[C@@H]3CO` [b-cyclodextrin, β-cyclodextrin] returned a contact angle of 61 °.
